Data taken from patent US8178699B2, “Modulators of CCR9 receptor and methods of use thereof” (Pfizer Inc., priority 2008, dated 2012).
Where a name gives a salt, the structure may show the parent alone.

Molecular target: T1, human CCR9 receptor (Homo sapiens, UniProt P51686)
T1 construct: expressed in transfected cells
T1 sequence (P51686 1-369): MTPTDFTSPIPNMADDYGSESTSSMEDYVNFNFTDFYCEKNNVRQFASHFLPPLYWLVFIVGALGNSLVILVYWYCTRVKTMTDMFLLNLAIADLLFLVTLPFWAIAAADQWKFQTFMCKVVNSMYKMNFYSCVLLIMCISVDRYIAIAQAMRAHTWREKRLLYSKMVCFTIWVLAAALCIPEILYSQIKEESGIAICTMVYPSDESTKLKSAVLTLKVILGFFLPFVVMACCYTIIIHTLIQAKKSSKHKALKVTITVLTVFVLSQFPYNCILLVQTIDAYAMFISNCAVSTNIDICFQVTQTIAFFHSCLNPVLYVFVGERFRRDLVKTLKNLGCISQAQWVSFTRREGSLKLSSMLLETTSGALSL
Test: CCR9 FLIPR/FlexStation Assay (inhibition of TECK induced calcium mobilization)
Assay type: cell-based
Conditions: CCR9 antagonist activity; TECK induced calcium mobilization in CCR9-Flp-CHO cells stably over expressing human CCR9; rhTECK at EC70; read-out: Binding IC50
Source text: Exemplary methods are described in US Publication Nos. US2004/0180892 and US2005/0049286, which are incorporated herein by reference. An exemplary assay for determining CCR9 antagonist activity of the compounds provided herein is CCR9 FLIPR/FlexStation Assay. In certain embodiments, the following protocol is used for the assay:
CCR9 FLIPR/FlexStation Assay Protocol
Calcium assay in FLIPR/FlexStation determines inhibitors of TECK induced calcium mobilization in CCR9-Flp-CHO cells that stably over express human CCR9 receptor. CCR9-Flp-CHO cells are seeded at 25,000 cells/well in a clear bottom, black wall 96-well plate (Greiner #655090) one day prior to assay. Cells are grown in a tissue culture incubator at 37° C. with 5% CO2 for 18 to 24 hours.
Wash buffer and dye loading buffer are prepared fresh each time the assay is performed. Wash buffer is prepared according to the following protocol: 20 ml 10×HBSS (Invitrogen Gibco #14065-056), 4 ml 1M HEPES (Sigma H3784), 174 ml sterile deionized water; then add 140 mg probenecid (Sigma P8761) dissolved in 2 ml 1M NaOH (Fisher S318) to solution and pH to 7.4. This wash buffer contains 1×HBSS, 20 mM HEPES and 2.5 mM probenecid. For one 96-well plate, dye loading buffer is prepared as following: 11 ml wash buffer, 44 μl Fluo-4/pluoronic acid mix (prepared from 22 μL aliquot of 2 mM Fluo-4 (Molecular Probes F14202, 1 mg/tube)+22 μl 20% pluronic F-127 (Molecular Probes P3000MP).
Cells are loaded with dye according to the protocol below:
1. Prepare wash buffer with 1×HBSS/HEPES at room temperature
2. Prepare loading buffer (keep in dark)
3. Aspirate culture media and wash with 100 μl wash buffer per well×1
4. Add 100 μl dye loading buffer to each well
5. Incubate at 37° C. for 30 minutes
6. Aspirate loading buffer
7. Wash with 100 μl wash buffer per well×3
8. Add 100 μl wash buffer per well
9. Incubate at 37° C. for 30 minutes
10. Assay plate with FLIPR or FlexStation
10 mM stock compounds in DMSO are prepared and diluted in DMSO to 1 mM. Compounds are diluted in wash buffer to make 8 point series dilutions containing same final concentration of DMSO (1%). Compounds are tested in duplicate wells for each point. Ligand rhTECK (R&D Systems 334-TK) was diluted to 6× of its EC70 with wash buffer. Appropriate amount of 6× ligand is added to each well. Data is analyzed using XLfit3 software to calculate IC50 value of antagonist activity for each compound.
CCR9 antagonist activity of exemplary compounds was determined using CCR9 FLIPR/FlexStation Assay as described in Section 4.4 and is provided in Table 1 below. The IC50 for the compounds are represented as follows: A≦100 nM; B>100-500 nM; C>500 nM.

| SMILES | IC50 [nM] |
| --- | --- |
| O=C(O)c1sccc1NS(=O)(=O)c1ccc(C2CCCC2)cc1F [Example 36, 3-(4-cyclopentyl-2-fluorophenylsulfonamido)thiophene-2-carboxylic acid, disodium salt] | ≤ 100 |
| O=C(O)c1sccc1NS(=O)(=O)c1ccc2c(c1)CCC2 [Example 33, 3-(2,3-dihydro-1H-indene-5-sulfonamido)thiophene-2-carboxylic acid, disodium salt] | > 500 |
| CC(C)(C)c1ccc(S(=O)(=O)Nc2ccsc2C(=O)O)c(/C=C/C2CC2)c1 [Example 52, 3-[4-tert-butyl-2-(2-cyclopropylvinyl)phenylsulfonamido]thiophene-2-carboxylic acid, disodium salt] | ≤ 100 |
| CC(C)(C)c1ccc(S(=O)(=O)Nc2ccsc2C(=O)O)c(-c2ccccc2)c1 [Example 46, 3-(5-tert-butylbiphenyl-2-ylsulfonamido)thiophene-2-carboxylic acid, disodium salt] | > 500 |
| COCCCc1cc(C(C)(C)C)ccc1S(=O)(=O)Nc1ccsc1C(=O)O [Example 59, 3-[4-tert-butyl-2-(3-methoxypropyl)phenylsulfonamido]thiophene-2-carboxylic acid, disodium salt] | 100 to 500 |
| CC(C)(C)c1ccc(S(=O)(=O)Nc2ccsc2C(=O)O)c(CCc2ccccc2)c1 [Example 11, 3-(4-tert-butyl-2-phenethylphenylsulfonamido)thiophene-2-carboxylic acid, disodium salt] | ≤ 100 |
| Cc1cc(C(C)(C)C)ccc1S(=O)(=O)Nc1ccsc1C(=O)O [Example 13, 3-(4-tert-butyl-2-methylphenylsulfonamido)thiophene-2-carboxylic acid, disodium salt] | ≤ 100 |
| CCc1ccccc1-c1cccc(S(=O)(=O)Nc2ccsc2C(=O)O)c1 [Example 39, 3-(2′-ethylbiphenyl-3-ylsulfonamido)thiophene-2-carboxylic acid, disodium salt] | > 500 |
| CC(C)(C)c1ccc(S(=O)(=O)Nc2ccsc2C(=O)O)c(/C=C/C(=O)O)c1 [Example 30, 3-[4-tert-butyl-2-(2-carboxyvinyl)phenylsulfonamido]thiophene-2-carboxylic acid, trisodium salt] | > 500 |
| COC/C=C/c1cc(C(C)(C)C)ccc1S(=O)(=O)Nc1ccsc1C(=O)O [Example 55, 3-[4-tert-butyl-2-(3-methoxyprop-1-enyl)phenylsulfonamido]thiophene-2-carboxylic acid, disodium salt] | 100 to 500 |
| CC(C)(C)c1ccc(S(=O)(=O)Nc2ccsc2C(=O)O)c(/C=C/c2ccccc2)c1 [Example 7, 3-(4-tert-butyl-2-styrylphenylsulfonamido)thiophene-2-carboxylic acid, disodium salt] | 100 to 500 |
| O=C(O)c1sccc1NS(=O)(=O)c1ccc(-n2cccn2)cc1 [Example 31, 3-[4-(1H-pyrazol-1-yl)phenylsulfonamido]thiophene-2-carboxylic acid, disodium salt] | > 500 |
| O=C(O)c1sccc1NS(=O)(=O)c1ccc(Br)cc1 [Example 20, 3-(4-bromophenylsulfonamido)thiophene-2-carboxylic acid, disodium salt] | > 500 |
| CC(C)(C)c1ccc(S(=O)(=O)Nc2ccsc2C(=O)O)c(N2CCOCC2)c1 [Example 3, 3-[4-tert-butyl-2-(morpholin-4-yl)phenylsulfonamido]thiophene-2-carboxylic acid] | 100 to 500 |
| CC(C)(C)c1ccc(S(=O)(=O)Nc2ccsc2C(=O)O)c(-c2ccoc2)c1 [Example 60, 3-[4-tert-butyl-2-(furan-3-yl)-phenylsulfonamido]thiophene-2-carboxylic acid, disodium salt] | 100 to 500 |
| C=Cc1cc(C(C)(C)C)ccc1S(=O)(=O)Nc1ccsc1C(=O)O [Example 61, 3-(4-tert-butyl-2-vinylphenylsulfonamido)thiophene-2-carboxylic acid, disodium salt] | ≤ 100 |
